Test results reported in ChEMBL document CHEMBL1201862, “PubChem BioAssay data set” (2004).
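In this assay, cells in 96-well plates receive the compound at five concentrations for 48 hours. Endpoints are linearly interpolated between the surrounding concentrations. GI50 is the concentration that inhibits growth by half.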 The source made the active and inactive calls. Rule as the data show it: active = GI50 up to about 1.1 µM and inactive = higher.

Key:
Test in all cases: NCI anticancer screen, dose series, 48 h
[1] = tested on: 786-0
[2] = tested on: CCRF-CEM
[3] = tested on: COLO 205
[4] = tested on: DU-145
[5] = tested on: Hs-578T
[6] = tested on: K562
[7] = tested on: KM12
[8] = tested on: LOX IMVI
[9] = tested on: NCI-H23
[10] = tested on: OVCAR-3
[11] = tested on: RXF 393
[12] = tested on: SF-295
[13] = tested on: SF-539
[14] = tested on: SK-MEL-5
[15] = tested on: SNB-19
[16] = tested on: SW-620
[17] = tested on: U-251
[18] = tested on: UO-31
[19] = tested on: IGROV-1

| Structure (SMILES) | GI50 [1] | GI50 [2] | GI50 [3] | GI50 [4] | GI50 [5] | GI50 [6] | GI50 [7] | GI50 [8] | GI50 [9] | GI50 [10] | GI50 [11] | GI50 [12] | GI50 [13] | GI50 [14] | GI50 [15] | GI50 [16] | GI50 [17] | GI50 [18] | GI50 [19] |
| --- | --- | --- | --- | --- | --- | --- | --- | --- | --- | --- | --- | --- | --- | --- | --- | --- | --- | --- | --- |
| CCOC(=O)c1c(N2CCCC2)[nH]c(=O)c(C(c2ccc(OC)cc2)c2c(O)c(C(=O)OCC)c(N3CCCC3)[nH]c2=O)c1O | > 100 µM (inactive) | > 100 µM (inactive) | > 100 µM (inactive) | > 100 µM (inactive) | > 100 µM (inactive) | > 100 µM (inactive) | > 100 µM (inactive) | > 100 µM (inactive) | 82 µM (inactive) | > 100 µM (inactive) | 57.3 µM (inactive) | 25.7 µM (inactive) | > 100 µM (inactive) | > 100 µM (inactive) | > 100 µM (inactive) | > 100 µM (inactive) | 48.9 µM (inactive) | > 100 µM (inactive) |  |
| Cc1ccc(S(=O)(=O)c2[nH]cc(/C(=C\C3CCCCC3)[N+](=O)[O-])c2C2CCCCC2)cc1 | 0.199 µM (active) | 0.272 µM (active) | 0.25 µM (active) | 0.596 µM (active) | 0.324 µM (active) | 0.251 µM (active) | 1.79 µM (inactive) | 0.202 µM (active) | 0.542 µM (active) | 0.27 µM (active) | 0.196 µM (active) |  | 0.462 µM (active) | 0.318 µM (active) | 1.75 µM (inactive) | 0.376 µM (active) | 0.653 µM (active) | 0.493 µM (active) | 0.314 µM (active) |
| CCOC(=O)C1CCCN1C(=O)c1ccccc1Cl (stereo unspecified) | > 100 µM (inactive) | > 100 µM (inactive) |  | > 100 µM (inactive) | > 100 µM (inactive) | > 100 µM (inactive) | > 100 µM (inactive) | > 100 µM (inactive) | > 100 µM (inactive) | > 100 µM (inactive) | > 100 µM (inactive) | > 100 µM (inactive) | > 100 µM (inactive) | > 100 µM (inactive) | > 100 µM (inactive) | > 100 µM (inactive) | > 100 µM (inactive) | > 100 µM (inactive) | > 100 µM (inactive) |
| Cc1ccc2[nH]c3c(c(=O)n(C)c(=O)n3C)c2c1 | > 100 µM (inactive) | > 100 µM (inactive) | > 100 µM (inactive) | > 100 µM (inactive) | > 100 µM (inactive) | > 100 µM (inactive) | > 100 µM (inactive) | > 100 µM (inactive) | > 100 µM (inactive) |  | > 10 µM (inactive) | > 100 µM (inactive) | > 100 µM (inactive) | > 100 µM (inactive) | > 100 µM (inactive) | > 100 µM (inactive) | > 100 µM (inactive) | > 100 µM (inactive) | > 100 µM (inactive) |
| Cc1ccc(Cl)c2c1NC(=O)/C2=N\Nc1ccccc1[N+](=O)[O-] | 28.8 µM (inactive) | 24.5 µM (inactive) | 46.3 µM (inactive) | 47.1 µM (inactive) | 22.4 µM (inactive) | 39.4 µM (inactive) | 23.8 µM (inactive) | 25.6 µM (inactive) | 47.6 µM (inactive) | 27.3 µM (inactive) | > 100 µM (inactive) | 24.1 µM (inactive) | 21.3 µM (inactive) |  | 68.4 µM (inactive) | 27 µM (inactive) | 31.6 µM (inactive) | 34.8 µM (inactive) | 6.53 µM (inactive) |
| CCCCCCOc1ccc(NC2=C(Cl)C(=O)c3ncccc3C2=O)cc1 | 2.22 µM (inactive) | 1.21 µM (inactive) |  | 1.5 µM (inactive) | 1.79 µM (inactive) | 2.59 µM (inactive) | 1.33 µM (inactive) | 1.61 µM (inactive) | 1.97 µM (inactive) | 2.1 µM (inactive) | 1.84 µM (inactive) | 1.96 µM (inactive) | 1.72 µM (inactive) | 1.54 µM (inactive) | 1.97 µM (inactive) | 1.83 µM (inactive) | 1.61 µM (inactive) | 1.39 µM (inactive) | 2.77 µM (inactive) |
| O=C1CCCC2C(O)CCC[C@H]12 (stereo partly specified) | > 100 µM (inactive) | > 100 µM (inactive) | > 100 µM (inactive) | > 100 µM (inactive) | > 100 µM (inactive) | > 100 µM (inactive) | > 100 µM (inactive) | > 100 µM (inactive) | > 100 µM (inactive) |  | 11.4 µM (inactive) | > 100 µM (inactive) | > 100 µM (inactive) | > 100 µM (inactive) | > 100 µM (inactive) | > 100 µM (inactive) | > 100 µM (inactive) | 51.1 µM (inactive) | > 100 µM (inactive) |
